Tests used:
Type in all cases: cell-based
[1] = test system: adult human bone marrow CD34+ cells; experiment: Ex vivo expansion culture: cell counts and CD34+CD90+ cell numbers
Procedure: (§1) To promote cell division of isolated CD34^+ cells, a stroma-free suspension culture was established as previously described (Bazil et al., 1995). Tissue culture dishes (35 mm; Costar, Corning, N.Y.) were seeded with 1×10^5 CD34^+cells/well in 2.5 mL Iscove modified Dulbecco medium (IMDM) (Biowhittaker, Walkersville, Md.) containing 30% FBS and a cocktail of cytokines specifically thought to promote exit from G0/G1 in primitive HSC populations which consisted of 100 ng/mL recombinant stem cell factor (SCF), 100 ng/mL FLT-3 ligand, 100 ng/mL thrombopoetin (TPO) and 50 ng/mL of interleukin (IL)-3, (all from Amgen Inc., Thousand Oaks, Calif.).
(§2) Cells were maintained in the media and incubated at 37° C. in a 100%-humidified atmosphere containing 5% CO2 for 48 hours. After intial 16 hours of incubation cells were exposed to the demethylating agent, 5-aza2′deoxycitidine (5azaD) (Sigma Chemicals, St. Louis, Mo.) at a concentration of 10^−6M. After 48 hours, cells were washed by centrifugation and then equally distributed to new tissue culture dishes in 2.5 mL IMDM supplemented with 30% FBS containing cytokines known to promote terminal differentiation of HSC into multiple hematopoietic lineages. The cocktail of cytokines contained 100 ng/mL of SCF, 50 ng/ml of granulocyte colony-stimulating factor (G-CSF), 50 ng/mL of IL-3, 50 ng/ml of IL-6 and 5 units (U)/mL of recombinant erythropoietin (EPO) (Amgen Inc., Thousand Oaks, Calif.). Cells at this time point were exposed to Trichostatin (TSA) (Sigma Chemical., St. Louis, Mo.) at 5 ng/mL and the culture was continued for an additional 7 days. At the end of the culture period cells were counted for viability by the trypan blue exclusion method using an inverted microscope. 5-fluorouracil (5-FU) (Sigma Chemical., St. Louis, Mo.) was used at a concentration of 200 μg/ml and added at the 16 hour time point instead of 5azaD and the cultures carried on as described above with no addition of TSA.
(§3) The phenotypic characteristics of the CD34^+ cells were analyzed using FACS. After 9 days of culture, expanded marrow CD34^+ cells were analyzed for primitive HSC phenotype, previously defined, by using flow activated-cell sorter (FACS) (Becton Dickinson (BD) FACS Calibur, San Jose, Calif.). Cells were stained with anti-human CD34^+ moAb conjugated either to fluorescein isothiocyanate (FITC) or phycoerythrin (PE) and another moAb including anti-CD38, anti-CD117, anti-CD90. To determine the lineage positive cells a panel of moab all conjugated to FITC (anti-CD2, anti-CD14, anti-CD15, anti-CD19 and anti-GlyA) (all antibodies were purchased from BD) were utilized. All anaylsis were paired with the corresponding matched isotype control of the specific moAb utilized. All staining and washes were performed in DPBS (Biowhittaker, Walkersville Md.) and 0.5% BSA (Sigma, Chemicals Co., St. Louis, Mo.). Immediately prior to FACS anaylsis, […] propidium iodide (PI) (Sigma, Chemicals Co., St. Louis, Mo.) was added for the exclusion of nonviable cells for phenotypic analysis. Using Cell-Quest software (BD), at least 10,000 live cells were acquired for each analysis.

[2] = test system: adult human bone marrow CD34+ cells; experiment: Colony-forming cell (CFC) assay in methylcellulose
Procedure: Colony-forming cells (CFC) were assayed under standard conditions in semisolid media as previously described (Brandt et al., Blood 94:106-113, 1999). Briefly 1×10^3 primary CD34^+ cells or unfractionated cultured cells exposed to different conditions used following 9 days of culture were plated in duplicate cultures containing 1 ml IMDM with 1.1% methylcellulose, 30% FBS, 5×10^−5 M 2-mercaptoethanol (Methocult, Stem Cell Technologies, Vancouver, BC, Canada), and a cocktail of growth factors including 100 ng/ml of SCF, 5 U/mL of EPO, 50 ng/mL of IL-3, 50 ng/mL of IL-6 and 50 ng/mL of G-CSF (Amgen Inc., Thousand Oaks, Calif.). The cells were plated into 35 mm tissue-culture dishes (Costar), and after 14 days of incubation at 37° C. in a 100%-humidified atmosphere containing 5% CO2, the colonies were scored with an inverted microscope following standard criteria (Breems et al., Leukemia, 8:1095-1104, 1994).

[3] = test system: adult human bone marrow CD34+ cells; experiment: Phenotypic analysis (FACS) of marrow CD34+ cells after ex vivo culture
Procedure: as §1, §2, §3

[4] = test system: adult human bone marrow CD34+ cells; experiment: Colony-forming cell (CFC) assay in methylcellulose; settings: after 5 days
[5] = 9 days of culture, single agent
[6] = 9 days with cytokines, mean of 3 ± SEM
[7] = colonies/plate, cells after 9 days with cytokines, mean of 2 ± SEM
[8] = 9 days of culture, single agent, % of total cells

SMILES: O=c1[nH]cc(F)c(=O)[nH]1 [5-FU, 5-fluorouracil]
- % CD34+ of all cells [1, 5]: 26%
- % CD34+ thy-1+ cells [1, 5]: 1%
- Absolute CD34+ thy-1+ cells ×10^5 [1, 5]: 0.0002 ×10^5
- Absolute CD34 counts ×10^5 [1, 5]: 0.0065 ×10^5
- Fold changes from the original cells ([1]; 9 days of culture, single agent, CD34+CD90+ cells): 0.001 fold
- Total counts ×10^5 ([1]; 9 days of culture, single agent, start 1×10^5 CD34+ cells/well): 0.025 ×10^5
- Absolute CD34+ Number (×10^4) [1, 6]: 0.1 ± 0.0 ×10^4
- Absolute CD34+CD90+ Numbers (×10^4) [1, 6]: 0.0 ×10^4
- Total Mononuclear Cell Number (×10^4) [1, 6]: 0.3 ± 0.0 ×10^4
- CD34+CD90+ cells observed ([1]; by day 9): no CD34^+CD90^+ cells were observed
- Fold Expansion of CD34+CD90+ ([1]; compared to the primary cell numbers, mean of 3 ± SEM): 0.0 fold
- absolute number of CD34+CD90+ cells in the culture ([1]; day 9, from 22,000 at start): 700
- assayable hematopoietic progenitor cells ([2]; 9 days with cytokines, compared with primary cells): no assayable hematopoietic progenitor cells
- Total Number Colonies/plate ([2]; cells after 9 days with cytokines, mean of 2 ± SEM): 0
- BFU-E [2, 7]: 0
- CFU-GM [2, 7]: 0
- CFU-Mix [2, 7]: 0
- Plating Efficiencies ([2]; total number of hematopoietic colonies/total cells plated × 100): 0
- CD34+ CD90+ % [3, 8]: 1.2%
- CD34+ CKit lo % [3, 8]: 4%
- CD34+ Lin− % [3, 8]: 27%
- CD34+CD38− % [3, 8]: 27%
- Total CD34+ % [3, 8]: 27%
- % of CD34+ cells that were CD90+ ([3]; day 9): 10%
- % of cells that were CD34+ ([3]; day 9): 20%
- assayable hematopoetic progenitor cells [4]: no assayable hematopoetic progenitor cells
